Data published in patent US8207137B2, “Method of inhibiting angiogenesis or invasion or formation of metastases” (INSERM, priority 2001, dated 2012).

Tests used:
HMVEC-d = experiment: Cell proliferation, tritiated thymidine incorporation; format: cell-based; conditions: human endothelial cells, mean±SEM
Procedure: (§1) The cells were cultured at the rate of 20,000 cells per well (96-well plate, Greiner) in the complete medium. After 24 h, the cells were cultured in a medium containing a concentration lower by half than that corresponding to the complete medium to induce the cell in phase G0/G1 of proliferation for 24 supplementary hours. The cells were then cultured for 30 h with complete medium in the presence or without the presence of AMEP. Tritiated thymidine (1 μCi per well) was then added to the cells and incubated for 18 hours. Incorporation of the tritiated thymidine by the cells was quantified by filter paper according to the protocol described for the use of a Skatron (Skatron, Lier, Norway). Radioactivity was then determined by counting after addition of scintillation liquid. The results were expressed as a percentage in relation to the control.

C51 = experiment: as above; format: cell-based; conditions: C51, murine cancer cells, mean±SEM
Procedure: as §1

HMVEC = experiment: as above; format: cell-based; conditions: human endothelial cells, mean±SEM
Procedure: as §1

3T3 = experiment: as above; format: cell-based; conditions: 3T3, murine fibroblasts, mean±SEM
Procedure: as §1

MDA-MB-231 = experiment: as above; format: cell-based; conditions: MDA-MB-231, human cancer cells, mean±SEM
Procedure: as §1

MDA MB 231 cells = experiment: Athymic murine model of tumor growth; format: in vivo; conditions: nude mice, MDA MB 231 tumors; AMEP expressed in muscle after gene electrotransfer, doxycycline induction; after 14 days of treatment
Text: The cDNA of AMEP was subcloned at the Eco RV site of the vector pBi (Clonetech, Palo Alto, Calif., USA). The expression of the gene of interest in this vector was under the dependence of a promoter responding to tetracycline in an expression system involving the eukaryote gene Tet-On. The Tet-On vector expresses the transactivator rtTA (reverse tetracycline transcriptional activator) and the vector Tet-tTS expresses the silencer tTS (tetracycline transcriptional silencer). The purifications of the plasmids were performed in a manner such that no endotoxin was present (Maxi endo free Kit, Quiagen). The purified plasmid DNA was dissolved in endotoxin-free sterile 0.9% NaCl at the desired concentration.
20 μg of plasmid pBi-AMEP, 10 μg of plasmid Tet-off and 20 μg of plasmid Tet-on were dissolved in 30 μl of sterile 0.9% NaCl and injected into the tibia cranial muscle of nude or C57B1/6 mice aged 8 weeks and previously anesthetized by intraperitoneal inoculation of pentobarbital as described by Mir et al. (Mir et al., 1999). […]
The MDA-MB-231 cells, which had been previously cultured to 80% confluence, were detached, washed and resuspended in PBS at the rate of 20·10^6 cells/ml. […] The size of the tumors was monitored for 14 days after induction.

CPAE = experiment: Cell proliferation, tritiated thymidine incorporation; format: cell-based, Bovine
Procedure: as §1

CPAE cells = experiment: Model of endothelial cell migration (agarose, 24-well plates); format: cell-based, bovine
Procedure: The migration model was implemented in 24-well plates. 1.5% agarose was dissolved in the culture medium to form a gel in the wells. Half of an agarose cylinder was then inserted in a well. The CPAE cells were added to the free space left in the well and cultured until their confluence. The piece of agarose was then removed to allow the cells to migrate and AMEP was added, at the desired concentrations, to the culture medium. Then, a transparent graph paper was placed under the plate to determine the migration rate of the cells using an ocular micrometer under reverse microscope. The experiments were performed in duplicate and repeated three times. The results were expressed in percentage in relation to the control.

endothelial cells (CPAE) = experiment: Apoptosis and cell cycle by flow cytometry (Hoechst 33342 and annexin V); format: cell-based, bovine
Procedure: Technique of specific vital staining of DNA with Hoechst 33342 (Sigma).
The endothelial cells (CPAE) were trypsinated and the cell suspension was adjusted to 1·10^6 cells/ml. Hoechst 33342 dye was added at the rate of 20 μg/ml and the cells were incubated for three minutes at ambient temperature under agitation. The percentage of apoptotic cells was analyzed by a flow cytometer (FACS). The cells were then incubated for 30 minutes in darkness (37° C.) and analysis of the cell cycle was performed.
Technique using annexin V (R and D system): A residue of 1·10^6 endothelial cells (CPAE) was resuspended in 1 ml of reaction buffer (100 μl of 10× binding buffer (100 mM Hepes/NaOH pH 7.4, 1.5 M NaCl, 50 mM KCl, 10 mM MgCl2, 18 mM CaCl2), 100 μl of propidium iodide (initial concentration 50 μg/ml), 10 μl of annexin V-FITC and 790 μl of deionized water. The suspension was incubated for 15 minutes in darkness at ambient temperature. The percentage of apoptotic cells was analyzed by flow cytometry.

AMEP: disintegrin domain of human metargidin (Met-420 to Glu-511, SEQ ID NO. 2), 91 amino acids, 9.7 kDa; recombinant or expressed in vivo by gene electrotransfer
% inhibition of cell proliferation by AMEP (5 μg/ml) (HMVEC-d): 54.2 ± 2.1% | % inhibition of cell proliferation by AMEP (5 μg/ml) (C51): 0.5 ± 1.1% | % inhibition of cell proliferation by AMEP (5 μg/ml) (HMVEC): 52.6 ± 3.1% | % inhibition of cell proliferation by AMEP (5 μg/ml) (3T3): 9.1 ± 2.2% | % inhibition of cell proliferation by AMEP (5 μg/ml) (MDA-MB-231): 17.5 ± 0.5% | inhibition of tumor volume (MDA MB 231 cells): 78% | inhibition of proliferation of endothelial cells (CPAE; 2 μg/ml): 40% | inhibition of proliferation of endothelial cells (CPAE; 5 μg/ml (maximal effect)): 60% | inhibition of proliferation of endothelial cells (CPAE; 10 μg/ml, compared with 60% at 5 μg/ml): identical percentage | % inhibition of cell proliferation by AMEP (5 μg/ml) (CPAE; bovine endothelial cells, 5 μg/ml, mean±SEM): 60.4 ± 3.2% | number of dead endothelial cells (floating in the culture medium) (CPAE cells; 10 μg/ml, phase-contrast microscope (FIG. 3)): augmentation of the number of dead endothelial cells | inhibition of cell migration (CPAE cells; CPAE, 10 μg/ml): complete inhibition | effect on the displacement rate of the cells (CPAE cells; CPAE, 2-10 μg/ml): dose dependent | % of apoptotic cells, Hoechst 33342 method (endothelial cells (CPAE); CPAE, AMEP 5 μg/ml, control 3.9 ± 1.1, mean±SEM): 12.6 ± 3.7% | % of apoptotic cells, Annexin-V method (endothelial cells (CPAE); CPAE, AMEP 5 μg/ml, control 4.6 ± 0.9, mean±SEM): 12.8 ± 2.5% | modification of the cell cycle (endothelial cells (CPAE); Hoechst 33342, not shown): no modification of the cell cycle | percentage of apoptotic cells multiplied by (factor versus control) (endothelial cells (CPAE); both methods (Hoechst 33342, annexin-V)): 3
